From patent US8445690B2, “Aminothiazolones as estrogen related receptor-alpha modulators” (Janssen Pharmaceutica NV, priority 2010, dated 2013) come the findings set out here.

pEC50: −log10 of the molar value.

The target of this experiment is T1, ERR1 (also known as ERR-α or ERR-1) (Homo sapiens, UniProt P11474).
T1 sequence (P11474 193-421 limits assumed): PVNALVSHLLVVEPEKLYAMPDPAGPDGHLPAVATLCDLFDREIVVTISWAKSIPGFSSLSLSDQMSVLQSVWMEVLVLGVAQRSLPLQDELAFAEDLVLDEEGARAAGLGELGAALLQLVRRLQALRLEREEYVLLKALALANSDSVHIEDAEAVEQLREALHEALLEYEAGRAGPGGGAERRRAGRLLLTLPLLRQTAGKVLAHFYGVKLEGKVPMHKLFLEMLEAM
Nature of the experiment: TR-FRET assay: disruption of co-activator peptide (GST-hSRC2) binding to 6His-tagged ERR1 LBD. In kind it is biochemical. The conditions noted are these: 6 nM ERR1LBD, 6 nM GST-SRC-2 peptide, 25° C., 4-18 hours; average of 3 independent experiments. As to the method: Time-Resolved Fluorescence Resonance Energy Transfer (TR-FRET) experiments were performed to examine the functional response of ERR1 (also known as ERR-α or ERR-1) ligands. The TR-FRET assay described herein relied on the conformation of ERR1 for binding to a co-activator peptide: when a test compound binds to ERR1 and alters its conformation, it can disrupt the binding of the co-activator peptide. The components of this homogeneous secondary assay included: the ^6His-tagged-ERR1LBD, a GST-labeled-hSRC2 co-activator polypeptide and a fluorescent donor/acceptor pair from CIS bio international htrf/bioassays (Bedford, Mass.) using both an α-GST Europium Cryptate (Eu) label and an α^6His-XL665 (allophycocyanin) fluorophore.
For TR-FRET measurements, the reaction was buffered in 25 mM Tris pH 8, 2.5 mM Hepes, 20 mM KCl, 1 mM DTT, and 0.05 mg/mL BSA (-lipids). The final concentrations of reagents were 6 nM of ERR1LBD, 6 nM GST-SRC-2 peptide, 30 nM Eu cryptate, and 7.5 nM XL665. Reactions were allowed to reach equilibrium at 25° C. for 4-18 hours before collecting data on the Analyst from LJL Biosystems (Molecular Devices Sunnyvale, Calif.). As a time-resolved method, the samples were excited at […] and emission was collected for 1 ms at both 615 and 665 nm with delays of 400 and 75 μs, respectively. Dose response curves were fitted using a hyperbolic equation and the data reported is the average of 3 independent experiments.
Compounds listed in Tables II below were tested in the above assay, and they are all active modulators of ERR1.
The pEC50 is the negative decadic logarithm of the EC50, by convention in mol/L. Regarding `COc1ccc(Cn2ncc3cc(/C=C4\SC(NC5(C(=O)O)CC5)=NC4=O)ccc32)c(C(F)(F)F)c1` [Compound 13, 1-{5-[1-(4-Methoxy-2-trifluoromethyl-benzyl)-1H-indazol-5-ylmethylene]-4-oxo-4,5-dihydro-thiazol-2-ylamino}-cyclopropanecarboxylic acid], the pEC50 is 8.28.
As for `O=C1CN(CCNC2=NC(=O)/C(=C/c3ccc4c(cnn4Cc4ccc(Cl)cc4C(F)(F)F)c3)S2)CCN1` [Compound 19, 4-(2-{5-[1-(4-Chloro-2-trifluoromethyl-benzyl)-1H-indazol-5-ylmethylene]-4-oxo-4,5-dihydro-thiazol-2-ylamino}-ethyl)-piperazin-2-one], the figure is 7.96; as for `Cc1nnc(CNC2=NC(=O)/C(=C/c3ccc4c(cnn4Cc4ccc(C(F)(F)F)cc4C(F)(F)F)c3)S2)[nH]1` [Compound 36, 5-[1-(2,4-Bis-trifluoromethyl-benzyl)-1H-indazol-5-ylmethylene]-2-[(5-methyl-4H-[1,2,4]triazol-3-ylmethyl)-amino]-thiazol-4-one], 8.32.
On to `O=C(O)CCCNC1=NC(=O)/C(=C/c2ccc3c(cnn3Cc3ccc(Cl)cc3C(F)(F)F)c2)S1` [Compound 37, 4-{5-[1-(4-Chloro-2-trifluoromethyl-benzyl)-1H-indazol-5-ylmethylene]-4-oxo-4,5-dihydro-thiazol-2-ylamino}-butyric acid], for which the pEC50 was 7.74.
`O=C1N=C(NCCn2ccnc2)S/C1=C\c1ccc2c(cnn2Cc2ccc(Cl)cc2C(F)(F)F)c1` [Compound 24, 5-[1-(4-Chloro-2-trifluoromethyl-benzyl)-1H-indazol-5-ylmethylene]-2-(2-imidazol-1-yl-ethylamino)-thiazol-4-one] gave a pEC50 of 7.92.
For `O=C1CN(CCNC2=NC(=O)/C(=C/c3ccc4c(cnn4Cc4ccc(C(F)(F)F)cc4C(F)(F)F)c3)S2)CCN1` [Compound 16, 4-(2-{5-[1-(2,4-Bis-trifluoromethyl-benzyl)-1H-indazol-5-ylmethylene]-4-oxo-4,5-dihydro-thiazol-2-ylamino}-ethyl)-piperazin-2-one], the pEC50 was 8.60.
In the case of `CN(C)CCCNC1=NC(=O)/C(=C/c2ccc3c(cnn3Cc3ccc(F)cc3C(F)(F)F)c2)S1` [Compound 1, 2-(3-Dimethylamino-propylamino)-5-[1-(4-fluoro-2-trifluoromethyl-benzyl)-1H-indazol-5-ylmethylene]-thiazol-4-one], the pEC50 is 7.11.
`COc1ccc(Cn2ncc3cc(/C=C4\SC(NC[C@@H](O)CO)=NC4=O)ccc32)c(C(F)(F)F)c1` [Compound 10, 2-(2R,3-Dihydroxy-propylamino)-5-[1-(4-methoxy-2-trifluoromethyl-benzyl)-1H-indazol-5-ylmethylene]-thiazol-4-one] had a pEC50 of 8.31.
`CNC(=O)CNC1=NC(=O)/C(=C/c2ccc3c(cnn3Cc3ccc(Cl)cc3C(F)(F)F)c2)S1` [Compound 41, 2-{5-[1-(4-Chloro-2-trifluoromethyl-benzyl)-1H-indazol-5-ylmethylene]-4-oxo-4,5-dihydro-thiazol-2-ylamino}-N-methyl-acetamide] had a negative logarithm of the EC50 (pEC50) of 8.11.
For `CN1CCC(NC2=NC(=O)/C(=C/c3ccc4c(cnn4Cc4ccc(Cl)cc4C(F)(F)F)c3)S2)CC1` [Compound 25, 5-[1-(4-Chloro-2-trifluoromethyl-benzyl)-1H-indazol-5-ylmethylene]-2-(1-methyl-piperidin-4-ylamino)-thiazol-4-one] the value was 7.38.
As to `COc1ccc(Cn2ncc3cc(/C=C4\SC(NC[C@H](O)CO)=NC4=O)ccc32)c(C(F)(F)F)c1` [Compound 9, 2-(2S,3-Dihydroxy-propylamino)-5-[1-(4-methoxy-2-trifluoromethyl-benzyl)-1H-indazol-5-ylmethylene]-thiazol-4-one], the pEC50 is 8.05.
Regarding `O=C1N=C(NCc2cccnc2)S/C1=C\c1ccc2c(cnn2Cc2ccc(Cl)cc2C(F)(F)F)c1` [Compound 23, 5-[1-(4-Chloro-2-trifluoromethyl-benzyl)-1H-indazol-5-ylmethylene]-2-[(pyridin-3-ylmethyl)-amino]-thiazol-4-one], the negative logarithm of the EC50 (pEC50) was 7.77.
